Converted amounts (≈) assume the structure as drawn.
What was measured:
[1] = test system: Human Foreskin Fibroblast (HFF); experiment: Cytotoxicity assay with WST-1 on HFF; assay type: cell-based; conditions: for Toxicity* (highest concentration tested that does not show toxicity to HFF): WST assay, second value of cell
Protocol: (§1) PBS Sol/Toxicity pH7.4 refers to solubility of the compound in Phosphate Buffered Saline (PBS) at pH7.4. […] Tachy/Brady IC50 was determined in studies in which cultures of parasites in HFF were treated with varying concentrations of the compound and there was 50% inhibition of the replication (number) of parasites. Parasites were RH-YFP expressing tachyzoites (Tachy) and EGS (Brady) strains. Studies of effects of inhibitors on HFF or on T.gondii tachyzoites were performed with triplicate wells in at least two biological replicate experiments. Studies of effects on bradyzoites were performed at least twice in at least two biological replicate experiments. Compounds with much less inhibition of mammalian than T. gondii cytochrome bc in the saffarine enzyme assay (indicated by **) provide potential to further develop compounds, if unanticipated toxicity occurs from JAG21.
Cytotoxicity Assays in parallel with RH Strain T.gondii in vitro studies. Toxicity assays used WST-1 cell proliferation reagent (Roche) as in Fomovska et al. (2012). HFF were grown on a flat, clear-bottomed, black 96-well plate. Confluent HFF were treated with inhibitory compounds at concentrations of 10 μM and 50 μM. Compounds were diluted in IMDM-C, and 20 μL were added to each designated well, with triplicates for each condition. A gradient with 2 fold-decreasing concentrations of DMSO from 10% to 0% in colorless, translucent IMDM-C was used as a control. The plate was incubated for 72 hours at 37° C. 10 μL WST-1 reagent (Roche) were added to each well. Cells were incubated for 30-60 minutes. Absorbance was read using a fluorimeter at 420 nm. A higher degree of color change (and absorbance) indicated mitochondrial activity and cell viability.
Because T. gondii grows inside cells, if a compound were toxic to host HFF then it would make the compound appear to be spuriously effective (Fomovska et al. 2012; Fomovska et al. 2012a), when in actuality only toxicity for the host cell would be measured. Cytotoxicity to HFF was therefore assessed for all compounds at 10 μM. Results of this experiment are in Table 1, toxicity column. A two-way ANOVA and subsequent pairwise comparison found none of the differences in absorbance, compared to the media-DMSO vehicle controls, to be statistically significant (p>0.05). Most of these compounds are not toxic at 10 μM (the limit of solubility) and that cytotoxicity to cells can be attributed to DMSO in the solution, not the compound.

[2] = test system: T. gondii mitochondrial membrane potential (cytochrome bc); experiment: Mitochondrial membrane potential by the safranine method (T. gondii, compared with HFF); assay type: cell-based, Toxoplasma gondii; conditions: for Effect on T. gondii mitochondrial membrane potential: doses as high as 4 μM
Protocol: T.gondii and HFF Mitochondrial Membrane Potential Measurements—the mitochondrial membrane potential was measured by the safranine method according to Vercesi et al, 1998). Freshly egressed T. gondii tachyzoites were filtered and washed twice with intracellular buffer (125 mM sucrose, 65 mM KCl, 10 mM HEPES-KOH buffer, pH 7.2, 1 mM MgCl2 and 2.5 mM potassium phosphate). After washing, the parasites were resuspended in the same buffer at 10^9/ml. An aliquot of 50 μL of this suspension was added to a cuvette containing Safranin 0, 2.5 μM and Succinate 1 mM in final volume of 2 mL of the intracellular buffer. The fluorescence was measured with a Hitachi 7000 spectrofluorometer with setting Ex. 495/Em. 586. Once the baseline fluorescence is testable, 30 μM digitonin was added to permeabilize the parasites. 85 seconds after permeabilization, the THQ derivatives, dissolved in DMSO, were added. 5 μM of FCCP (Carbonyl cyanide-4-(trifluoromethoxy) phenylhydrazone) was used as an uncoupler reference for calculations and its effect was considered 100%. Similar conditions for measuring the mitochondrial potential of mammalian cells were used with the following changes: the mammalian cells were re-suspended at 10^8/ml. 50 μl of mammalian cells was also used for each run in a cuvette with […]. The substrate used for mammalian cells was 5 mM glutamate and 5 mM malate. A higher concentration of digitonin (50 μM) was used to permeabilize the mammalian cells. The compounds were added at about 400 seconds after permeabilization. Each experiment was repeated at least three times in duplicates. Statistical analysis, unpaired student t test, was performed using GraphPad Prism 8.0 (GraphPad Software, Inc., San Diego, Calif.).
Mitochondrial membrane potential measurements were performed with permeabilized T.gondii tachyzoites in suspension using safranin O, which loads into polarized membranes. T. gondii tachyzoites were permeabilized with digitonin to allow the mitochondrial substrate succinate to cross the membrane and energize the mitochondrion. The fluorescence of safranin O, which loads into energized mitochondria was used to measure the membrane potential. The energized state of the mitochondrion is observed by a decrease in fluorescence (FIGS. 3A,C,E). Trifluoromethoxy carbonylcyanide phenylhydrazone (FCCP) was used to depolarize the membrane, which causes the fluorescence to go up as shown in FIG. 3A. JAG21 depolarized the membrane potential even at concentrations as low as 2 nM (FIG. 3C,D). JAG21 and Atovaquone had similar effects on the mitochondrial membrane potential (FIG. 3D). […] The effect of these THQ compounds against the T. gondii mitochondrial membrane potential was greater than the effect on the human foreskin fibroblast membrane potential (FIG. 3E,F). […]

[3] = Kinetic/aqueous solubility in PBS pH 7.4; assay type: physicochemical; conditions: for solubility: amorphous compounds; for PBS Sol pH7.4: solubility in Phosphate Buffered Saline pH 7.4, first value of cell
Protocol: PBS Sol/Toxicity pH7.4 refers to solubility of the compound in Phosphate Buffered Saline (PBS) at pH7.4. […] Parasites were RH-YFP expressing tachyzoites (Tachy) and EGS (Brady) strains. Studies of effects of inhibitors on HFF or on T.gondii tachyzoites were performed with triplicate wells in at least two biological replicate experiments. Studies of effects on bradyzoites were performed at least twice in at least two biological replicate experiments. Compounds with much less inhibition of mammalian than T. gondii cytochrome bc in the saffarine enzyme assay (indicated by **) provide potential to further develop compounds, if unanticipated toxicity occurs from JAG21.
(§2) Structure Activity Relationship (SAR) and comparison of effect on T.gondii and HFF enzyme activity. […] The MDCK-MDR1 Permeability Assay was also performed. […] These were measured by Chem Partners.

[4] = biological target: T1, P. falciparum bc1 complex cytochrome c reductase (Pfbc1) (Plasmodium falciparum, UniProt Q02768); experiment: Pfbc1 native assay (cytochrome c reduction by parasite extract); assay type: biochemical; conditions: atovaquone 1 μM positive control, mean±S.D., N=4
T1 construct: Parasite extract was then prepared by disruption with a sonicating probe; endogenous in cells; host or cells: P. falciparum 3D7 blood-stage parasites freed by saponin, sonicated extract
T1 sequence (Q02768 1-376): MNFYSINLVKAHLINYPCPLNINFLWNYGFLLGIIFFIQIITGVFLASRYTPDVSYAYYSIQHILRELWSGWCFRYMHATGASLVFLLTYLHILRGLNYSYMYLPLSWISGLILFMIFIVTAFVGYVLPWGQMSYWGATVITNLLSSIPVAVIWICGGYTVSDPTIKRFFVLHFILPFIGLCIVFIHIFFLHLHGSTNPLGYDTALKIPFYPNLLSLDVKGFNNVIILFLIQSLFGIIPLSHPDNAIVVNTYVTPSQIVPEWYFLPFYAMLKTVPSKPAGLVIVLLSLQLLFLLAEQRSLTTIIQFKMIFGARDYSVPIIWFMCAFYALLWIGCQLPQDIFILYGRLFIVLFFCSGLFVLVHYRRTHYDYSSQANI
Protocol: Enzyme assays. P. falciparum 3D7 strain were obtained from the Liverpool School of Tropical Medicine. Protease cocktail inhibitor was obtained from Roche. Bradford protein assay dye reagent was obtained from Bio-Rad. All other reagents were obtained from Sigma-Aldrich. Decylubiquinol was produced as per Fisher et al. (2009). In brief, 25 mg of decylubiquinone were dissolved in 400 μl of nitrogen-saturated hexane. An equal volume of aqueous 1 M sodium dithionite was added, and the mixture vortexed until colorless. […] Concentrations of decylubiquinol was determined spectrophotometrically on a Cary 300 Bio UV/visible spectrophotometer (Varian, UK) from absolute spectra, using ε288-320=8.1 mM-1·cm^−1. […]
The protocol for the preparation of parasite extract was adapted from Fisher et al. Free parasites were prepared from infected erythrocytes pooled from five T75 flasks, by adding 5 volumes of 0.15% (w/v) saponin in phosphate-buffered saline (137 mM NaCl, 2.7 mM KCl, 1.76 mM K2HPO4, 8.0 mM Na2HPO4, 5.5 mM D-glucose, pH 7.4) for 5 min, followed by three washes by centrifugation in RPMI containing HEPES (25 mM), and a final resuspension in potassium phosphate buffer (50 mM K2HPO4, 50 mM KH2PO4, 2 mM EDTA, pH7.4) containing a protease inhibitor cocktail (Complete Mini; Roche). […] The protein concentration of the parasite extract was determined by Bradford protein assay (Bio-Rad). […]

[5] = Metabolic stability in mouse liver microsomes; assay type: in vitro ADME; conditions: predicted half-life in mouse liver microsomes; no unit in table (101 minutes for JAG021)
[6] = test system: P-glycoprotein (MDR1, ABCB1); experiment: in vitro; assay type: in vitro ADME, canine; conditions: dog, MDCK-MDR1
Protocol: as §2

[7] = test system: T. gondii RH-YFP tachyzoites; experiment: In vitro challenge assay, RH strain YFP tachyzoites in HFF; assay type: cell-based, Toxoplasma gondii; conditions: requires hepatic metabolism
Protocol: as §1
RH strain YFP Tachyzoites. Protocol was adapted from Fomovska et al. (2012; 2012a) for HFF. […] RH-YFP, lysed from host cells by passing twice through a 27-gauge needle, were counted, then diluted to 32,000/mL in IMDM-C. […] Plates were read using a fluorimeter (Synergy H4 Hybrid Reader, BioTek) to ascertain amount of relative fluorescence units (RFU) YFP, to measure parasite burden after treatment. Data were collected using Gen5 software with IC50 calculated by graphical analysis in Excel. […]

Structure (SMILES): Cc1[nH]c2c(c(=O)c1-c1ccc(Oc3ccc(C(=O)O)cc3)cc1)CCCC2 [JAG046]
- Toxicity* (highest concentration tested that does not show toxicity to HFF) [1]: ND/5 μM
- Effect on T. gondii mitochondrial membrane potential [2]: almost no effect

Structure (SMILES): Cc1[nH]c2c(c(=O)c1-c1ccc(Oc3cccc(C(=O)O)c3)cc1)CCCC2 [JAG047]
- Toxicity* (highest concentration tested that does not show toxicity to HFF) [1]: ND/5 μM
- Effect on T. gondii mitochondrial membrane potential [2]: almost no effect

Structure (SMILES): Cc1[nH]c2c(c(=O)c1-c1ccc(Oc3ccc(Cl)cc3)cc1)CCCC2 [JAG050]
- solubility [3]: 16 µM (≈ 5.85 µg/mL)
- PBS Sol pH7.4 [3]: 16.41 μM
- Toxicity to human cells in the in vitro model (HFF) [1]: not toxic
- Concentration depolarizing the T. gondii mitochondrial membrane potential ([2]; permeabilized tachyzoites, safranin O): ≥ 200 nM

Structure (SMILES): O=c1c2c([nH]c(CO)c1-c1ccc(Oc3ccc(OC(F)(F)F)cc3)cc1)CCCC2 [JAG099]
- PBS Sol pH7.4 [3]: 4.05 μM
- inhibition at 1 µM [4]: 81.3 ± 6%

Structure (SMILES): Cc1[nH]c2c(c(=O)c1-c1ccc(Oc3ccccc3)cc1)CCCC2 [MJM170]
- solubility ([3]; phosphate buffered saline, pH 7.4, aqueous buffer, kinetic from dmso stock): 2 µM (≈ 0.663 µg/mL)
- PBS Sol pH7.4 [3]: 1.97 μM
- T1/2 (M) [5]: 20.97
- Papp [6]: > 10 ×10⁻⁶ cm/s
- efflux ratio [6]: < 1.5

Structure (SMILES): COc1cc(C)c2c(Oc3cccc(C(F)(F)F)c3)c(OC)cc(NC(C)CCCN)c2n1 (stereo not shown) [Tafenoquine]
- Activity in tissue culture [7]: not active

Source: patent US20230181564A1, “Potent Tetrahydroquinolone Eliminates Apicomplexan Parasites” (The University of Chicago, priority 2020, published 2023)
